Measured values taken from patent US11560372B2, “Heterocyclic compounds useful as modulators of acetylcholine receptors” (TAKEDA PHARMACEUTICAL COMPANY LIMITED, priority 2017, dated 2023).

Assays:
MDR1 = biological target: T1, MDR1 (Homo sapiens, UniProt P08183); test: MDR1 membrane permeability test; assay type: in vitro ADME; details: pH 7.4, efflux ratio (ER), Papp B to A / A to B, human MDR1-expressing LLC-PK1 cells, read-out: MDR1 substrate screening 1 μM (MDRSUB1)/Ratio (NUMBER)
T1 construct: expressed in transfected cells
T1 sequence (P08183 whole entry): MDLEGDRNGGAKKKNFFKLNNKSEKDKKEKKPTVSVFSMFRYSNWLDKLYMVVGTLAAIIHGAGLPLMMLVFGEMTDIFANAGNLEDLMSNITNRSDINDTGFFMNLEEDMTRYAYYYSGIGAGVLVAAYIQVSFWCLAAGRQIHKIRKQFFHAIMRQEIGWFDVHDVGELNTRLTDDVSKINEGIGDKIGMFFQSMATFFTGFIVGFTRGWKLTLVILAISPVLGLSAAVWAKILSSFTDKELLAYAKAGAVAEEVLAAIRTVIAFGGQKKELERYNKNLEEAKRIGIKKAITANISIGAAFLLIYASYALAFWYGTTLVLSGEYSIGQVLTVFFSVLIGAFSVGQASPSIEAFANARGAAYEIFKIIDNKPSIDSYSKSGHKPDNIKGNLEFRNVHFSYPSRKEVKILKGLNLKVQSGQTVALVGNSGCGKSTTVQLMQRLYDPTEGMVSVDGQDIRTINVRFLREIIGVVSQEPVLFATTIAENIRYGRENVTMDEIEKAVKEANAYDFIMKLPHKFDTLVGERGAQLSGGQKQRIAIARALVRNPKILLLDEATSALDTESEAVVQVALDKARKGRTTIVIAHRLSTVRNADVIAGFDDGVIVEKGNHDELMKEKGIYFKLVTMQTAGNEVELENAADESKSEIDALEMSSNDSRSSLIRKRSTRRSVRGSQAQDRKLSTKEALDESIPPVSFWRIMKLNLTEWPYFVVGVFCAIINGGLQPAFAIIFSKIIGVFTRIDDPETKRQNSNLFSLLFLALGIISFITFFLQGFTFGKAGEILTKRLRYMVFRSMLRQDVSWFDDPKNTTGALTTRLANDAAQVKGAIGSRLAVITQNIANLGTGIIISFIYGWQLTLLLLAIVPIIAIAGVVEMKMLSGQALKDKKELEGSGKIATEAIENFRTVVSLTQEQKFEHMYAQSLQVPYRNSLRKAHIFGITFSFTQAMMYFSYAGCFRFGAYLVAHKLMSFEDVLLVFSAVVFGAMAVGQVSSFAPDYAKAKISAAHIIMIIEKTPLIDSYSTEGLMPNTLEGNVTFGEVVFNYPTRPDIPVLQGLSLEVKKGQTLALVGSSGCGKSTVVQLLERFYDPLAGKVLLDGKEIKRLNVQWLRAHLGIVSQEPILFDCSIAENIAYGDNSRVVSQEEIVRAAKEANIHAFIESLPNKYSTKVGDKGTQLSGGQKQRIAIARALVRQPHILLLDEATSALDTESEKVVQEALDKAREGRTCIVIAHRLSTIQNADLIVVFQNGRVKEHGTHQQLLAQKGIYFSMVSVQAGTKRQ
In short: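 Human MDR1-expressing LLC-PK1 cells were grown for 3 days on 96-well polyethylene terephthalate Transwell supports (0.4 μm pores, 0.143 cm^2) seeded at 3.45×10^4 cells/well. After a 30 min preincubation in M199 medium with 10 mmol/L HEPES and 1% BSA (pH 7.4), drug was added apically or basolaterally. After 1 hr at 37° C, the opposite side was sampled and analyzed by LC-MS/MS. Efflux ratio was calculated from Papp B to A versus A to B.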

Male SD rats = test: Rat defecation experiment; assay type: in vivo; details: mean±standard error
Description: Rat Defecation Experiment
Male SD rats (5-6 weeks old) were used after an acclimation period for about 1 week. A test drug (1 mg/kg, 3 mg/kg, or 10 mg/kg) was suspended in 0.5% methylcellulose solution and orally administered at a volume of 5 mL/kg, and the number of feces 2 hr later was counted. Only 0.5% methylcellulose was administered to a solvent administration group.

SMILES	efflux ratio at 1 hr, 1 μM (MDR1)	number of feces 2 hr later (Male SD rats; 1 mg/kg orally)	number of feces 2 hr later (Male SD rats; 3 mg/kg orally)	number of feces 2 hr later (Male SD rats; 10 mg/kg orally)
COCCNC(=O)c1ccc(Cc2cc3c(=O)n([C@H]4CCOC[C@@H]4O)cnc3c(C)c2C)cc1F [Example 66, 1,5-anhydro-2,3-dideoxy-3-(6-(3-fluoro-4-((2-methoxyethyl)carbamoyl)benzyl)-7,8-dimethyl-4-oxoquinazolin-3(4H)-yl)-L-threo-pentitol]	7	9.9 ± 1.0		
Cc1nn(C)cc1-c1ccc(Cc2cc3c(=O)n([C@H]4CCOC[C@@H]4O)cnc3c(C)c2C)cn1 [Example 5, 1,5-anhydro-2,3-dideoxy-3-(6-((6-(1,3-dimethyl-1H-pyrazol-4-yl)pyridin-3-yl)methyl)-7,8-dimethyl-4-oxoquinazolin-3(4H)-yl)-L-threo-pentitol]	15			
Cc1c(Cc2ccc(-c3cn(C)nn3)nc2)cc2c(=O)n([C@H]3CCOC[C@@H]3O)cnc2c1C [Example 2, 1,5-anhydro-2,3-dideoxy-3-(7,8-dimethyl-6-((6-(1-methyl-1H-1,2,3-triazol-4-yl)pyridin-3-yl)methyl)-4-oxoquinazolin-3(4H)-yl)-L-threo-pentitol]	18			
CNC(=O)c1ccc(Cc2cc3c(=O)n([C@H]4CCOC[C@@H]4O)cnc3c(C)c2C)cc1F [Example 3, 1,5-anhydro-2,3-dideoxy-3-(6-(3-fluoro-4-(methylcarbamoyl)benzyl)-7,8-dimethyl-4-oxoquinazolin-3(4H)-yl)-L-threo-pentitol]	6	7.4 ± 0.7	7.8 ± 1.4	
Cc1c(Cc2ccc(C(=O)NC[C@H]3CCCO3)c(F)c2)cc2c(=O)n([C@H]3CCOC[C@@H]3O)cnc2c1C [Example 81, 1,5-anhydro-2,3-dideoxy-3-(6-(3-fluoro-4-(((2R)-tetrahydrofuran-2-ylmethyl)carbamoyl)benzyl)-7,8-dimethyl-4-oxoquinazolin-3(4H)-yl)-L-threo-pentitol]	8.6	6.9 ± 1.1	7.0 ± 0.8	11.5 ± 1.1
CNC(=O)c1ccc(Cc2cc3c(=O)n([C@H]4CCOC[C@@H]4O)nnc3c(Cl)c2C)cc1F [Example 19, 1,5-anhydro-3-(8-chloro-6-(3-fluoro-4-(methylcarbamoyl)benzyl)-7-methyl-4-oxo-1,2,3-benzotriazin-3(4H)-yl)-2,3-dideoxy-L-threo-pentitol]	4.6			
Cc1c(Cc2ccc(-c3cnn(C)c3)nc2)cc2c(=O)n([C@H]3CCOC[C@@H]3O)cnc2c1C [Example 6, 1,5-anhydro-2,3-dideoxy-3-(7,8-dimethyl-6-((6-(1-methyl-1H-pyrazol-4-yl)pyridin-3-yl)methyl)-4-oxoquinazolin-3(4H)-yl)-L-threo-pentitol]	11			
